Test results published in patent US20110039762A1, “TARGETED ANTIMICROBIAL MOIETIES” (C3 JIAN, INC., priority 2009, published 2011).
“Also recorded” adds a separate entry of the source.

Columns and labels:
microorganisms = test: Peptides having multiple activities (targeting/binding, antimicrobial, growth or phenotype altering)
Excerpt: In certain embodiments, peptides described herein can have multiple activities. Thus for example, a peptide can have both binding/targeting activity and antimicrobial activity. Such peptides can be used, e.g., in a chimeric construct, for any or all of these properties. Thus, for example, a peptide designated “B” in Table 8 can be used as a targeting peptide. If it is also designated G or M it can also be used for antimicrobial activity.

E. coli = test: Kill or inhibit growth/proliferation; morphology, biofilm and growth disruption (Tables 5, 6); format: cell-based, Escherichia coli; parameters: key: A: Peptide aggregates; B: Less hyphal formation; Clumps; Diffuse clumps and small polyps; F: Diffuse growth; H: Thin; I: Growth inhibition; Microcolony formation; Rippled; Small polyps; Thick; W: Halo formation on top, microlonies on bottom; also: test concentration or dose not given here
[1] = tested on: microorganisms (e.g., bacteria, yeasts, fungi); test: Targeting peptide binding to target microorganisms (Table 3); settings: preferably 1x PBS; for Target(s): microorganism(s) the targeting peptide binds; for Target(s) (microorganisms bound by the targeting peptide): peptide binding in aqueous buffers varied by peptide solubility
S. epidermidis = test: Kill or inhibit growth/proliferation; morphology, biofilm and growth disruption (Tables 5, 6); format: cell-based, Staphylococcus epidermidis; parameters: key: A: Peptide aggregates; B: Less hyphal formation; Clumps; Diffuse clumps and small polyps; F: Diffuse growth; H: Thin; I: Growth inhibition; Microcolony formation; Rippled; Small polyps; Thick; W: Halo formation on top, microlonies on bottom; also: test concentration or dose not given here
MRSA = test: as above; format: cell-based, Methicillin-resistant Staphylococcus aureus; parameters: key: A: Peptide aggregates; B: Less hyphal formation; Clumps; Diffuse clumps and small polyps; F: Diffuse growth; H: Thin; I: Growth inhibition; Microcolony formation; Rippled; Small polyps; Thick; W: Halo formation on top, microlonies on bottom
E. faecalis = test: as above; format: cell-based, Enterococcus faecalis; parameters: key: A: Peptide aggregates; B: Less hyphal formation; Clumps; Diffuse clumps and small polyps; F: Diffuse growth; H: Thin; I: Growth inhibition; Microcolony formation; Rippled; Small polyps; Thick; W: Halo formation on top, microlonies on bottom
S. pneumoniae = test: as above; format: cell-based, Streptococcus pneumoniae; parameters: key: A: Peptide aggregates; B: Less hyphal formation; Clumps; Diffuse clumps and small polyps; F: Diffuse growth; H: Thin; I: Growth inhibition; Microcolony formation; Rippled; Small polyps; Thick; W: Halo formation on top, microlonies on bottom
[2] = binding in aqueous buffers depending on peptide solubility
[3] = peptide binding conducted in aqueous buffers varied by peptide solubility
For Organism, effect (morphology, biofilm and growth disruption) in this document: test concentration or dose not given here.
For Organism, effect in this document: test concentration or dose not given here.

| Substance | Activities (microorganisms) | Organism, effect (E. coli) | Target(s) [1, 2] | Organism, effect (S. epidermidis) | Organism, effect (MRSA) | Target(s) [1, 3] | Organism, effect (E. faecalis) | Organism, effect (S. pneumoniae) | Target(s) (microorganisms bound by the targeting peptide) [1] | Organism, effect (morphology, biofilm and growth disruption) (S. epidermidis) | Organism, effect (morphology, biofilm and growth disruption) (E. faecalis) | Organism, effect (morphology, biofilm and growth disruption) (S. pneumoniae) | Organism, effect (morphology, biofilm and growth disruption) (MRSA) |
| --- | --- | --- | --- | --- | --- | --- | --- | --- | --- | --- | --- | --- | --- |
| PF-344: peptide having multiple activities (DERLPEAKAIRNFNGSVMVLGR; Peptide with targeting and/or antimicrobial activity) | G B | E. coli (A) | B. subtilis; also recorded: C. jejuni |  |  |  |  |  |  |  |  |  |  |
| PF-350: peptide having multiple activities (LAVILRAIVY; Peptide with targeting and/or antimicrobial activity) | G B | E. coli (C) | S. epidermidis; also recorded: E. coli; also recorded: E. faecalis; also recorded: C. jeikeium; also recorded: C. jejuni | S. epidermidis (C) | MRSA (C) |  |  |  |  |  |  |  |  |
| PF-362: peptide having multiple activities (chain 1 NIERILKEKVWMIRCVE; chain 2 NIERILKEKVWMIRCVE; Peptide with targeting and/or antimicrobial activity) | G B | E. coli (C) | S. epidermidis; also recorded: E. coli; also recorded: P. aeruginosa; also recorded: C. albicans; also recorded: E. faecalis; also recorded: C. jejuni |  | MRSA (C) |  |  |  |  |  |  |  |  |
| PF-383: peptide having multiple activities (chain 1 WSEIEINTKQSN; chain 2 WSEIEINTKQSN; Peptide with targeting and/or antimicrobial activity) | G B | E. coli (R) | S. epidermidis; also recorded: B. subtilis; also recorded: B. fragilis; also recorded: E. coli; also recorded: C. jejuni | S. epidermidis (C) |  |  |  |  |  |  |  |  |  |
| PF-385: peptide having multiple activities (chain 1 MIKKSILKIKYYVPVLISLTLILSA; chain 2 MIKKSILKIKYYVPVLISLTLILSA; Peptide with targeting and/or antimicrobial activity) | G B | E. coli (A) | S. epidermidis |  |  | E. coli; also recorded: P. aeruginosa; also recorded: C. albicans; also recorded: E. faecalis |  |  |  |  |  |  |  |
| PF-407: peptide having multiple activities (KPKNKKEKTVISYEKLLSMY; Peptide with targeting and/or antimicrobial activity) | G B |  |  | S. epidermidis (M) | MRSA (C) |  | E. faecalis (R) | S. pneumoniae (R) |  |  |  |  |  |
| PF-429: peptide having multiple activities (AATLICVGSGIMSSL; Peptide with targeting and/or antimicrobial activity) | G B |  |  | S. epidermidis (C) | MRSA (C) | S. epidermidis; also recorded: S. pneumoniae; also recorded: C. jeikeium | E. faecalis (C) | S. pneumoniae (M) |  |  |  |  |  |
| PF-443: peptide having multiple activities (chain 1 KLLYFFNYFENLQQVHLLVQL; chain 2 KLLYFFNYFENLQQVHLLVQL; Peptide with targeting and/or antimicrobial activity) | G B | E. coli (R) |  |  | MRSA (C) |  |  | S. pneumoniae (C) |  |  |  |  |  |
| PF-447: peptide having multiple activities (chain 1 IDKSRNKDQFSHIFGLYNICSG; chain 2 IDKSRNKDQFSHIFGLYNICSG; Peptide with targeting and/or antimicrobial activity) | G B |  |  | S. epidermidis (C) | MRSA (C) | S. epidermidis; also recorded: M. luteus; also recorded: E. coli; also recorded: S. pneumoniae | E. faecalis (C) | S. pneumoniae (C) |  |  |  |  |  |
| PF-450: peptide having multiple activities (chain 1 HRNLIILQRTIFI; chain 2 HRNLIILQRTIFI; Peptide with targeting and/or antimicrobial activity) | G B |  |  |  | MRSA (C) |  | E. faecalis (C) | S. pneumoniae (C) |  |  |  |  |  |
| PF-541 (RRNLNSPNIKTRKRALKIIKQHQRSK; Peptide with targeting and/or antimicrobial activity) |  | E. coli (H) |  |  |  |  |  | S. pneumoniae (H) |  |  |  |  |  |
| PF-544: peptide having multiple activities (chain 1 FGEKQMRSWWKVHWFHP; chain 2 FGEKQMRSWWKVHWFHP; Peptide with targeting and/or antimicrobial activity) | G B |  |  | S. epidermidis (D) | MRSA (D) |  | E. faecalis (R) | S. pneumoniae (M) |  |  |  |  |  |
| PF-613: peptide having multiple activities (ADEFAKL; Peptide with targeting and/or antimicrobial activity) | G B |  |  | S. epidermidis (R) | MRSA (C) |  | E. faecalis (A) |  | C. jeikeium |  |  |  |  |
| PF-616: peptide having multiple activities (IVFVVTKEKK; Peptide with targeting and/or antimicrobial activity) | G B |  |  | S. epidermidis (R) |  |  | E. faecalis (A) |  | C. jeikeium |  |  |  |  |
| PF-638: peptide having multiple activities (chain 1 TFILPK; chain 2 TFILPK; Peptide with targeting and/or antimicrobial activity) | G B |  |  | S. epidermidis (R) | MRSA (M) |  | E. faecalis (H) | S. pneumoniae (I) | S. epidermidis and C. albicans and MRSA and C. jeikeium |  |  |  |  |
| PF-664: peptide having multiple activities (chain 1 DQLCVEYPARVSTG; chain 2 DQLCVEYPARVSTG; Peptide with targeting and/or antimicrobial activity) | G B |  |  |  |  |  |  |  | M. smegmatis | S. epidermidis (M) | E. faecalis (R) | S. pneumoniae (M) | MRSA (R) |
| PF-667 (chain 1 PAHQRLRIDQRLVADRDMVQDYES; chain 2 PAHQRLRIDQRLVADRDMVQDYES; Peptide with targeting and/or antimicrobial activity) |  |  |  |  |  |  |  |  | Mycobacteria spp | S. epidermidis (R) | E. faecalis (R) | S. pneumoniae (R) | MRSA (R) |
| PF-677 (chain 1 TCRGAGMH; chain 2 TCRGAGMH; Peptide with targeting and/or antimicrobial activity) |  |  |  |  |  |  |  |  | Mycobacteria spp | S. epidermidis (R) | E. faecalis (R) | S. pneumoniae (D) | MRSA (D) |
| PF-690 (chain 1 MIPLAGDPVSSHRTVEFGVLGTYLVSGGSL; chain 2 MIPLAGDPVSSHRTVEFGVLGTYLVSGGSL; Peptide with targeting and/or antimicrobial activity) |  |  |  |  |  |  |  |  | Mycobacteria spp | S. epidermidis (R) | E. faecalis (R) | S. pneumoniae (M) | MRSA (R) |
| PF-695 (chain 1 ALSVMLGNIPLVVPNANQL; chain 2 ALSVMLGNIPLVVPNANQL; Peptide with targeting and/or antimicrobial activity) |  |  |  |  |  |  |  |  | Mycobacteria spp |  | E. faecalis (R) | S. pneumoniae (C) | MRSA (R) |
